# Data published in US20060117399A1, “Animal model for human lymphomas” (Medical University, priority 2004, published 2006).
# B1: Fas ligand: death ligand, 100 ng/ml, PeoproTech (protein, UniProt P48023 130-281, looked up)
# Tumor necrosis factor ligand …: QIGHPSPPPEKKELRKVAHLTGKSNSRSMPLEWEDTYGIVLLSGVKYKKGGLVINETGLYFVYSKVYFRGQSCNNLPLSHKVYMRNSKYPQDLVMMEGKMMSYCTTGQMWARSSYLGAVFNLTSADHLYVNVSELSLVNFEESQTFFGLYKL
# Legend:
# B lymphoma cells = assay: In vitro lymphocyte survival and apoptosis assays (trypan blue dye exclusion); format: cell-based, mouse; settings: B lymphoma cells from p80HT transgenic mice; doxorubicin 0.5 μg/ml
# Description: (§1) C-E: In vitro survival and apoptosis assays of splenic B cells and B lymphoma cells. Cells were either untreated (D) or treated with 0.5 μg/ml of doxorubicin (C) or with 20 μg/ml of LPS (E). Viability was determined by trypan blue dye exclusion assays. Data in (A-E) represent means±SD of cells from 5 mice of each genotype or from 58 lymphomas samples.
# (§2) Purified splenic B cells and B lymphoma cells (10^5/well, 96-well plate) were cultured in DMEM supplemented with 10% FBS, 250 μM L-asparagine, and 50 μM 2-mercaptoethanol. Cells were either untreated or treated with recombinant mouse TNF-α (20 ng/ml, Calbiochem), Fas ligand (100 ng/ml, PeoproTech), LPS (20 μg/ml, Sigma), or doxorubicin (0.5 μg/ml, Ben Venue Laboratories), and viable cells were determined daily by trypan blue dye exclusion assays.
# splenic B cells = assay: as above; format: cell-based, mouse; settings: for sensitivity of splenic B cells to death stimuli: both wild-type and p80HT splenic B cells, TNF-α 20 ng/ml, Fas ligand 100 ng/ml, doxorubicin 0.5 μg/ml
# Description: as §1, §2
Molecule,apoptosis induced by doxorubicin (B lymphoma cells),sensitivity of splenic B cells to death stimuli (splenic B cells),"apoptosis induced by the activation signal (LPS) (splenic B cells; p80HT splenic B cells, LPS 20 μg/ml)","response of splenic B cells to LPS (splenic B cells; splenic B cells generally, LPS 20 μg/ml, after about 3 days of proliferation)"
COc1cccc2c1C(=O)c1c(O)c3c(c(O)c1C2=O)C[C@@](O)(C(=O)CO)C[C@@H]3O[C@H]1C[C@H](N)[C@H](O)[C@H](C)O1 [doxorubicin],highly resistant,equally sensitive,,
TNF-a,,highly resistant,,
lipopolysaccharide [LPS],,,highly resistant,extensive apoptosis
B1,,highly resistant,,
